ChEMBL document CHEMBL4765434, “Pyrrolo[2,3-d]pyrimidine derivatives as inhibitors of RET: Design, synthesis and biological evaluation” (Eur J Med Chem, 2020)
The source made the active and inactive calls. The rule behind the calls is not given here.

How the values were obtained:
[1] = target: T1, Proto-oncogene tyrosine-protein kinase receptor Ret (Homo sapiens, UniProt P07949); assay: Inhibition of recombinant human GST-tagged RET cytoplasmic domain (658 to 1114 residues) expressed in baculovirus expression system using 5-FAM-EEPLYWSFPAKKK-CONH2 as substrate preincubated for 60 mins followed by substrate addition by microfluidic assay
T1 sequence (P07949 whole entry, the tested form may be a part): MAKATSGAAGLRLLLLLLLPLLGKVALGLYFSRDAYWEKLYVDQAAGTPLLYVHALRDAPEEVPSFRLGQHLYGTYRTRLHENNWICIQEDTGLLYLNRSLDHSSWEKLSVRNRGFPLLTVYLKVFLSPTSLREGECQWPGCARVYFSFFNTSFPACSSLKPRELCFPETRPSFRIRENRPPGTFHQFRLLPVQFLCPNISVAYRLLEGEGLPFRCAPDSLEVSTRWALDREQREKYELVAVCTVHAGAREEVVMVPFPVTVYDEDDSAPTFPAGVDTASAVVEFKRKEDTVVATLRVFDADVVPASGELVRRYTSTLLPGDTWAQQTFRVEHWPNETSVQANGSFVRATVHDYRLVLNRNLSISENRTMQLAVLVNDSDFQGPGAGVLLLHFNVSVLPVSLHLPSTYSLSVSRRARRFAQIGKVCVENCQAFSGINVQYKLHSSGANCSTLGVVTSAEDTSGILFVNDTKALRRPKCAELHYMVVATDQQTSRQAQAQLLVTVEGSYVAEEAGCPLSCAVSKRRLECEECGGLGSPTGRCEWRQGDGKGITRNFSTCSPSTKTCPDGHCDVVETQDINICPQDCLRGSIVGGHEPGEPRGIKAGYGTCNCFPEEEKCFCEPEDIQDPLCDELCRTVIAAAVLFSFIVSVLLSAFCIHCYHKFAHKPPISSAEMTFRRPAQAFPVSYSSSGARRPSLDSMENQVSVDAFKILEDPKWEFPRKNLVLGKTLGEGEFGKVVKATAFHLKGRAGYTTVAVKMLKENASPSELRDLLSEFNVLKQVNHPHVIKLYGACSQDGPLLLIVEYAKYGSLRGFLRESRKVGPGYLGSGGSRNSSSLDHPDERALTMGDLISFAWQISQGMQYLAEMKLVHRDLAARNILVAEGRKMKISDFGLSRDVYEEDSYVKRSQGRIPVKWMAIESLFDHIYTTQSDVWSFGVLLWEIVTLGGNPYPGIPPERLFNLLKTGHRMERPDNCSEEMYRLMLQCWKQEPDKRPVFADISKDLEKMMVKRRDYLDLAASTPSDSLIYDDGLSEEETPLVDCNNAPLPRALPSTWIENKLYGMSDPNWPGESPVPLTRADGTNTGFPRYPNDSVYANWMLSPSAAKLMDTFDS

LC-2-ad [2] = assay: Growth inhibition of human LC-2-ad cells measured after 3 days by resazurin staining based fluorescence assay; type: functional; settings: 72 h, time 3 day
LC-2-ad [3] = assay: Inhibition of cell migration in human LC-2-ad cells assessed as migrated distance at 1 uM measured after 52 hrs by microscopic method (reference value: 819.01 +/- 65.76 micrometer); type: functional
[4] = target: T2, Serine/threonine-protein kinase Nek2 (Homo sapiens, UniProt P51955); assay: Inhibition of Nek2 (unknown origin)
T2 sequence (P51955 whole entry): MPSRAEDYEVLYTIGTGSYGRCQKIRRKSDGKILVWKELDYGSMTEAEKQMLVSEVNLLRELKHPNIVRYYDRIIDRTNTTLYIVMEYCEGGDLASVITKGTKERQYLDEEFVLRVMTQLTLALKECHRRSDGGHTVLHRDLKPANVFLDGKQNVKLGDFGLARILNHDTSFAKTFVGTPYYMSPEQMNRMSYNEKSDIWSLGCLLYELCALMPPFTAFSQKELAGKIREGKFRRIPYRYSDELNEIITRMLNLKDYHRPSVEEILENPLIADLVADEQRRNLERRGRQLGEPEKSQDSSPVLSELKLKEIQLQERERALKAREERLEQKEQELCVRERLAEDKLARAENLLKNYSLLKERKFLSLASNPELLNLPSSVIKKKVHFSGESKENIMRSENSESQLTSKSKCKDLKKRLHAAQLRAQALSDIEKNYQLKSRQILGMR

[5] = target: Mitogen-activated protein kinase kinase kinase 14 (Homo sapiens, UniProt Q99558); assay: Inhibition of NIK (unknown origin)
Mitogen-activated protein kinase kinase kinase 14, sequence (Q99558 whole entry, the tested form may be a part): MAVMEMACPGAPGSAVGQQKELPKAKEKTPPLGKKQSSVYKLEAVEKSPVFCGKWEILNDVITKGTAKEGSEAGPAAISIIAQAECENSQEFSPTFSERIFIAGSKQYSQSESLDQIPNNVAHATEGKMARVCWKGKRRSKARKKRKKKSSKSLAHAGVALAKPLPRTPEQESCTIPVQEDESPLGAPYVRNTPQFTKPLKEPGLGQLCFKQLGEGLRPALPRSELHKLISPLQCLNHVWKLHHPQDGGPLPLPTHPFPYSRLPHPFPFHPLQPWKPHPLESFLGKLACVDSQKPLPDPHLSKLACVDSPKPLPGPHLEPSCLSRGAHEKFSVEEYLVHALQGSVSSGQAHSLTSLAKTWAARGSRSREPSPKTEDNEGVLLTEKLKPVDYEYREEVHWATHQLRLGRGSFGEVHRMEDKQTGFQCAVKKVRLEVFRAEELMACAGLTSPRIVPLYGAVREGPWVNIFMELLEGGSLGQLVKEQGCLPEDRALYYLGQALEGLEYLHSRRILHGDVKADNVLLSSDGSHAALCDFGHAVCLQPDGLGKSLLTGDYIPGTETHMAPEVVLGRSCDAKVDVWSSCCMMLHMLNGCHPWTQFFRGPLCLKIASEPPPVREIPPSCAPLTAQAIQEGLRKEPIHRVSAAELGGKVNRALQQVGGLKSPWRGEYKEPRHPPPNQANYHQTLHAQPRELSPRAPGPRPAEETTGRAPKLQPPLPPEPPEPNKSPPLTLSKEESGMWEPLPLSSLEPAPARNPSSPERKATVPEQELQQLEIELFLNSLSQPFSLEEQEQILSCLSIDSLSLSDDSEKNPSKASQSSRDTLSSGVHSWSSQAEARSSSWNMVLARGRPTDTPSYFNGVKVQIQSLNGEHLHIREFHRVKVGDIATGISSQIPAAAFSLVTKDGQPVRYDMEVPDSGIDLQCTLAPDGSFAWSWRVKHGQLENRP

[6] = target: T1, Proto-oncogene tyrosine-protein kinase receptor Ret; assay: Non competitive inhibition of recombinant human GST-tagged RET cytoplasmic domain (658 to 1114 residues) expressed in baculovirus expression system at 3.125 to 50 nM using 5-FAM-EEPLYWSFPAKKK-CONH2 as substrate by Lineweaver-burk plot analysis; settings: dose 3.125-50 nM
Aurora kinase A = target: T3, Aurora kinase A (Homo sapiens, UniProt O14965); assay: Inhibition of Aurora A (unknown origin)
T3 sequence (O14965 whole entry): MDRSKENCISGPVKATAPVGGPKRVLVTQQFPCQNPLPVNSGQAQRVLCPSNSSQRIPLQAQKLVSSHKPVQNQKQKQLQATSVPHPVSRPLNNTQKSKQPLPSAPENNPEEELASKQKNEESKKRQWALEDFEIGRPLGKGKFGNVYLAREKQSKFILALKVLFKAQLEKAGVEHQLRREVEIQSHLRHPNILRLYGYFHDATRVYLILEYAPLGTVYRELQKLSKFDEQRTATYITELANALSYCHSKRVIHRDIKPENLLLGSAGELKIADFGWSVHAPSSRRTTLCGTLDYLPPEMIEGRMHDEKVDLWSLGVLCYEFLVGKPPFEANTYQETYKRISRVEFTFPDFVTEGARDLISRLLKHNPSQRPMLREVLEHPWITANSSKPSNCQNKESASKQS

[7] = target: Mitogen-activated protein kinase kinase kinase kinase 4 (Homo sapiens, UniProt O95819); assay: Inhibition of MAP4K4 (unknown origin)
[8] = target: Proto-oncogene tyrosine-protein kinase receptor Ret (Homo sapiens, UniProt P07949, V804M); assay: Inhibition of recombinant human N-terminal GST-HIS6 fused RET V804M mutant (658 to 1114 residues) expressed in Sf9 insect cells using 5-FAM-EEPLYWSFPAKKK-CONH2 as substrate preincubated for 60 mins followed by substrate addition by microfluidic assay
Proto-oncogene tyrosine-protein kinase receptor Ret (Homo sapiens, UniProt P07949, V804M), sequence (P07949 29-1114 V804M limits assumed): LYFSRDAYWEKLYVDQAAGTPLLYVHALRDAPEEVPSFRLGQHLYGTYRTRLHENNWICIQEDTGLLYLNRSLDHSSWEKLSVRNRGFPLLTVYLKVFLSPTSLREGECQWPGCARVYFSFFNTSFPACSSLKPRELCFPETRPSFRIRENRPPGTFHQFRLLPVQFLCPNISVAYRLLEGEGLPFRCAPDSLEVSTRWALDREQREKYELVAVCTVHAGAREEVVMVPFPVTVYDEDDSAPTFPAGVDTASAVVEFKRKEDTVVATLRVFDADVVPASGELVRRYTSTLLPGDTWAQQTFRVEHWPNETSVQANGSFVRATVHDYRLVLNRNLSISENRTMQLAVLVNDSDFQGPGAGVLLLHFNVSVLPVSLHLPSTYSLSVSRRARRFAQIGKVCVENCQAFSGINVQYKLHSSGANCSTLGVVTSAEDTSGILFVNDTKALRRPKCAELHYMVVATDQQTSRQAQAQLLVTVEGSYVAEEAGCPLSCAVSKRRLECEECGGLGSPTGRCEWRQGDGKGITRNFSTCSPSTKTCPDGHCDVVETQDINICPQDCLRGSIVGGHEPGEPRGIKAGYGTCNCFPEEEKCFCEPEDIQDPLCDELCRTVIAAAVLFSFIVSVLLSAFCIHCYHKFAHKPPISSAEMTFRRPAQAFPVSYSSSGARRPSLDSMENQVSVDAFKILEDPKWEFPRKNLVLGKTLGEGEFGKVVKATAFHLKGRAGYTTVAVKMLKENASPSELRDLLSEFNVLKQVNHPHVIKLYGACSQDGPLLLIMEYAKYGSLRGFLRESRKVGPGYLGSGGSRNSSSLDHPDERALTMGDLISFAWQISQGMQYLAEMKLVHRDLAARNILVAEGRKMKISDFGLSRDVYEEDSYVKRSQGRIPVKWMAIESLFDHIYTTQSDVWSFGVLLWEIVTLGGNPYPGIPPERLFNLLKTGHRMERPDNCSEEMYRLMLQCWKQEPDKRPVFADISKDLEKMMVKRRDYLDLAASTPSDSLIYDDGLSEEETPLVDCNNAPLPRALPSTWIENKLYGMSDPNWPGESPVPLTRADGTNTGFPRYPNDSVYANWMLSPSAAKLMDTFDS

LC-2-ad [9] = assay: Inhibition of cell migration in human LC-2-ad cells assessed as migrated distance at 3 uM measured after 52 hrs by microscopic method (reference value: 819.01 +/- 65.76 micrometer); type: functional
[10] = target: Macrophage colony-stimulating factor 1 receptor (Homo sapiens, UniProt P07333); assay: Inhibition of CSF1R (unknown origin)
Macrophage colony-stimulating factor 1 receptor, sequence (P07333 whole entry): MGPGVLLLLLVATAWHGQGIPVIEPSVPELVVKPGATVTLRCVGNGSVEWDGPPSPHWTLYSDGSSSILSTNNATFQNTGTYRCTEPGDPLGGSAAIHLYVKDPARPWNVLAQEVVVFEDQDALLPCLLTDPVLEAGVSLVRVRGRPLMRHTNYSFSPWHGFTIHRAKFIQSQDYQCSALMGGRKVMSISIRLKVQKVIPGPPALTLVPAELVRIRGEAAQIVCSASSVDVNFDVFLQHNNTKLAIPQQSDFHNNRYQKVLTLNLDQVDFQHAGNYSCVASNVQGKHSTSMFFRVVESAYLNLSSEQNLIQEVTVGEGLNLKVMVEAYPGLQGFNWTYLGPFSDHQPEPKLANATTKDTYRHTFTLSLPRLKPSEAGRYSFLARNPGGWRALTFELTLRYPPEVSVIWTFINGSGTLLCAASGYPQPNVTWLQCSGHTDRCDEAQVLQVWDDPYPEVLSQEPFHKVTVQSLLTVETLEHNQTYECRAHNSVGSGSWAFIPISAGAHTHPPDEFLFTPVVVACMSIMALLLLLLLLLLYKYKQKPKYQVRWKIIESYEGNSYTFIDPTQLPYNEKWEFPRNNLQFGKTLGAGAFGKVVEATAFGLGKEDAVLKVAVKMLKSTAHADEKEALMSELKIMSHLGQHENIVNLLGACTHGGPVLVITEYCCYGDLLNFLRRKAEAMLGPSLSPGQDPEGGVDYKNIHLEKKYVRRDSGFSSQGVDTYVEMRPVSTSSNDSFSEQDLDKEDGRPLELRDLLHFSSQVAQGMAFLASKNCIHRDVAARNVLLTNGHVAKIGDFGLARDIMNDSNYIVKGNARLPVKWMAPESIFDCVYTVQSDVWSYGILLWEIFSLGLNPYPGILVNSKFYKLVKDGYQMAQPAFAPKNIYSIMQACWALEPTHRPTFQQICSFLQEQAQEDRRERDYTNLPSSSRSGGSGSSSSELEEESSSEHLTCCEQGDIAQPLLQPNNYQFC

Aurora kinase B = Aurora kinase B (Homo sapiens, UniProt Q96GD4); assay: Inhibition of Aurora B (unknown origin)
Aurora kinase B, sequence (Q96GD4 whole entry, the tested form may be a part): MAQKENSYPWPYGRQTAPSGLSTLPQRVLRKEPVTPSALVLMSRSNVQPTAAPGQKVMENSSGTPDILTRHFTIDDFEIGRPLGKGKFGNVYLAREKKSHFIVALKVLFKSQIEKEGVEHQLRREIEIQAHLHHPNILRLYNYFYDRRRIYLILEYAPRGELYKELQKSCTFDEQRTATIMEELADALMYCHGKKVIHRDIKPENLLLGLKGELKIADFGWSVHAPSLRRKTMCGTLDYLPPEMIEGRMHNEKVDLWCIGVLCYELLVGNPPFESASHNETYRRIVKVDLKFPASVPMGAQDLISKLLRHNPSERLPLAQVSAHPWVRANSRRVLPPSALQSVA

[11] = target: T1, Proto-oncogene tyrosine-protein kinase receptor Ret; assay: Non ATP-competitive inhibition of recombinant human GST-tagged RET cytoplasmic domain (658 to 1114 residues) expressed in baculovirus expression system at 3.125 to 50 nM using 5-FAM-EEPLYWSFPAKKK-CONH2 as substrate; settings: dose 3.125-50 nM
[12] = target: Epidermal growth factor receptor (Homo sapiens, UniProt P00533); assay: Inhibition of EGFR (unknown origin)

SMILES | IC50 [1] [µM] | further results
COc1cc(NC(=O)Cc2ccc(Nc3ncnc4[nH]ccc34)cc2)cc(OC)c1OC | 47.6 | 
CS(=O)(=O)c1ccc(NC(=O)Cc2ccc(Nc3ncnc4[nH]ccc34)cc2)cc1 | > 20 | 
CC(C)(C)c1ccc(-c2cc3c(Nc4ccc(CC(=O)Nc5cccc(F)c5)cc4)ncnc3[nH]2)cc1 | > 20 | 
O=C(Cc1ccc(Nc2ncnc3[nH]ccc23)cc1)Nc1cccc(F)c1 | > 20 | 
COc1cc2nccc(Oc3ccc(NC(=O)C4(C(=O)Nc5ccc(F)cc5)CC4)cc3)c2cc1OC [CABOZANTINIB] |  | Activity (LC-2-ad [3]): 287.3 um
CC(C)c1ccc(NC(=O)Cc2ccc(Nc3ncnc4[nH]c(-c5cnn(C)c5)cc34)cc2)cc1 | > 20 | 
O=C(Cc1ccc(Nc2ncnc3[nH]ccc23)cc1)Nc1cccc(C(F)(F)F)c1 | 16.2 | GI50 (LC-2-ad [2]): 33.5 µM
O=C(Cc1ccc(Nc2ncnc3[nH]ccc23)cc1)Nc1ccc2c(c1)OCO2 | > 20 | 
O=C(Cc1ccc(Nc2ncnc3[nH]ccc23)cc1)Nc1ccc(C(F)(F)F)c(Cl)c1 | > 20 | 
O=C(Cc1ccc(Nc2ncnc3sccc23)cc1)Nc1cccc(F)c1 | > 20 | 
COc1ccc(-c2cc3c(Nc4ccc(CC(=O)Nc5ccc(F)cc5)cc4)ncnc3[nH]2)cc1 | > 20 | 
O=C(Cc1ccc(Nc2ncnc3[nH]ccc23)cc1)Nc1ccc(OC(F)(F)F)cc1 | > 20 | 
CC(C)(C)c1cc(NC(=O)Cc2cccc(Nc3ncnc4[nH]ccc34)c2)no1 | 31.6 | GI50 (LC-2-ad [2]): 43.7 µM
O=C(Cc1ccc(Nc2ncnc3[nH]c(-c4ccsc4)cc23)cc1)Nc1cccc(F)c1 | > 20 | 
Cn1nc(C(C)(C)C)cc1NC(=O)Cc1cccc(Nc2ncnc3[nH]ccc23)c1 | 39.6 | 
O=C(Cc1ccc(Nc2ncnc3[nH]ccc23)cc1)Nc1cccc2ncccc12 | 19 | 
Cn1cc(-c2cc3c(Nc4ccc(CC(=O)Nc5cccc(F)c5)cc4)ncnc3[nH]2)cn1 | > 20 | 
COc1ccc(-c2cc3c(Nc4ccc(CC(=O)Nc5cccc(F)c5)cc4)ncnc3[nH]2)cc1 | > 20 | 
CC(C)(C)c1ccc(NC(=O)Cc2ccc(Nc3ncnc4[nH]ccc34)cc2)cc1 | 15.8 | 

More lines, main results first:

IC50 [1] [µM] | SMILES | further results
0.044 | CC(=O)c1ccc(-c2cc3c(Nc4ccc(CC(=O)Nc5cc(C(C)(C)C)on5)cc4)ncnc3[nH]2)cc1 | 
0.052 | Cn1nc(C(C)(C)C)cc1NC(=O)Cc1ccc(Nc2ncnc3[nH]c(-c4ccsc4)cc23)cc1 | 
3.93 | Cn1nc(C(C)(C)C)cc1NC(=O)Cc1ccc(Nc2ncnc3c2ccn3C)cc1 | GI50 (LC-2-ad [2]): 36.4 µM
0.127 | Cn1nc(C(C)(C)C)cc1NC(=O)Cc1ccc(Nc2ncnc3[nH]ccc23)cc1 | GI50 (LC-2-ad [2]): 1.65 µM
2.37 | O=C(Cc1ccc(Nc2ncnc3[nH]ccc23)cc1)NC1CC1 | GI50 (LC-2-ad [2]): 14 µM
0.96 | CC(C)(C)c1cc(NC(=O)Cc2ccc(Nc3ncnc4sccc34)cc2)no1 | GI50 (LC-2-ad [2]): 15.2 µM
13.5 | CC(C)(C)c1ccc(-c2cc3c(Nc4ccc(CC(=O)Nc5cc(C(C)(C)C)on5)cc4)ncnc3[nH]2)cc1 | 
0.12 | COc1ccc(-c2cc3c(Nc4ccc(CC(=O)Nc5cc(C(C)(C)C)nn5C)cc4)ncnc3[nH]2)cc1 | 
2.44 | COc1ccc(-c2cc3c(Nc4ccc(CC(=O)Nc5ccc(C(C)C)cc5)cc4)ncnc3[nH]2)cc1 | 
0.076 | CC(C)(C)c1cc(NC(=O)Cc2ccc(Nc3ncnc4[nH]ccc34)cc2)no1 | GI50 (LC-2-ad [2]): 1.26 µM
3.91 | O=C(Cc1ccc(Nc2ncnc3[nH]ccc23)cc1)NC1CCC1 | 
0.0068 | CC(C)(C)c1cc(NC(=O)Cc2ccc(Nc3ncnc4[nH]c(-c5ccc(S(C)(=O)=O)cc5)cc34)cc2)no1 | IC50 [4]: > 200 µM; IC50 [5]: > 10 µM; GI50 (LC-2-ad [2]): 0.107 µM; inhibition [6]: Active; IC50 (Aurora kinase A): 0.242 µM; IC50 [7]: 3.43 µM; IC50 [8]: 0.0135 µM; Activity (LC-2-ad [9]): 356.41 um; IC50 [10]: 1.65 µM; IC50 (Aurora kinase B): 0.536 µM; inhibition [11]: Active; IC50 [12]: 56.8 µM
1.06 | Cn1nc(C(C)(C)C)cc1NC(=O)Cc1ccc(Nc2ncnc3sccc23)cc1 | GI50 (LC-2-ad [2]): 17.5 µM
0.05 | CC(C)(C)c1cc(NC(=O)Cc2ccc(Nc3ncnc4[nH]c(-c5ccsc5)cc34)cc2)no1 | GI50 (LC-2-ad [2]): 0.18 µM
0.009 | Cn1nc(C(C)(C)C)cc1NC(=O)Cc1ccc(Nc2ncnc3[nH]c(-c4ccc(S(C)(=O)=O)cc4)cc23)cc1 | 
0.021 | Cn1cc(-c2cc3c(Nc4ccc(CC(=O)Nc5cc(C(C)(C)C)nn5C)cc4)ncnc3[nH]2)cn1 | IC50 [8]: 0.0728 µM
0.82 | Cn1cc(-c2cc3c(Nc4ccc(CC(=O)Nc5cc(C(C)(C)C)on5)cc4)ncnc3s2)cn1 | 
4.65 | O=C(Cc1ccc(Nc2ncnc3[nH]ccc23)cc1)NCc1ccccc1 | 
7.69 | CC(C)c1ccc(NC(=O)Cc2ccc(Nc3ncnc4[nH]ccc34)cc2)cc1 | GI50 (LC-2-ad [2]): 29.6 µM
3.51 | Cn1ccc2c(Nc3ccc(CC(=O)Nc4cc(C(C)(C)C)on4)cc3)ncnc21 | 
0.009 | Cn1cc(-c2cc3c(Nc4ccc(CC(=O)Nc5cc(C(C)(C)C)on5)cc4)ncnc3[nH]2)cn1 | GI50 (LC-2-ad [2]): 0.136 µM; IC50 [8]: 0.0635 µM
1.39 | Cn1cc(-c2cc3c(Nc4ccc(CC(=O)Nc5cc(C(C)(C)C)nn5C)cc4)ncnc3s2)cn1 | 
